Measured values taken from the kinase profiling compilation of Christmann-Franck et al. (2016).

Columns and labels:
Experiment in all cases: radiometric filter-binding kinase assay, Kinase HotSpot
Conditions in all cases: compound 0.5 µM; ATP 10 µM
AKT3 (human) = AKT3 (human) (UniProt Q9Y243)
CAMK1G (human) = CAMK1G (human) (UniProt Q96NX5)
CAMK2A (human) = CAMK2A (human) (UniProt Q9UQM7)
CAMK2B (human) = CAMK2B (human) (UniProt Q13554)
CAMK2D (human) = CAMK2D (human) (UniProt Q13557)
CDK2 CCNA2 (human) = CDK2 CCNA2 (human) (UniProt P24941+P20248)
CDK3 CCNE1 (human) = CDK3 CCNE1 (human) (UniProt Q00526+P24864)
CDK4 CCND1 (human) = CDK4 CCND1 (human) (UniProt P24385+P11802)
CDK6 CCND3 (human) = CDK6 CCND3 (human) (UniProt P30281+Q00534)
CHEK1 (human) = CHEK1 (human) (UniProt O14757)
CLK1 (human) = CLK1 (human) (UniProt P49759)
DAPK3 (human) = DAPK3 (human) (UniProt O43293)
EPHB4 (human) = EPHB4 (human) (UniProt P54760)
GRK4 (human) = GRK4 (human) (UniProt P32298)
GRK7 (human) = GRK7 (human) (UniProt Q8WTQ7)
HIPK4 (human) = HIPK4 (human) (UniProt Q8NE63)
IRAK1 (human) = IRAK1 (human) (UniProt P51617)
[1] = biological target: JAK1 JH1 catalytic (human) (UniProt P23458)
JAK3 JH1 JH2 (human) = JAK3 JH1 JH2 (human) (UniProt P52333)
MAPK1 (human) = MAPK1 (human) (UniProt P28482)
MYLK2 (human) = MYLK2 (human) (UniProt Q9H1R3)
PBK (human) = PBK (human) (UniProt Q96KB5)
PIM2 (human) = PIM2 (human) (UniProt Q9P1W9)
PRKCH (human) = PRKCH (human) (UniProt P24723)
PRKCI (human) = PRKCI (human) (UniProt P41743)
PRKD1 (human) = PRKD1 (human) (UniProt Q15139)
RIPK2 (human) = RIPK2 (human) (UniProt O43353)
ROCK1 (human) = ROCK1 (human) (UniProt Q13464)
RPS6KA5 KD2 (human) = RPS6KA5 KD2 (human) (UniProt O75582)
STK11 (human) = STK11 (human) (UniProt Q15831)
STK33 (human) = STK33 (human) (UniProt Q9BYT3)
STK39 (human) = STK39 (human) (UniProt Q9UEW8)
TAOK3 (human) = TAOK3 (human) (UniProt Q9H2K8)
TGFBR1 (human) = TGFBR1 (human) (UniProt P36897)
TSSK1B (human) = TSSK1B (human) (UniProt Q9BXA7)
TSSK2 (human) = TSSK2 (human) (UniProt Q96PF2)
[2] = biological target: TYK2 JH1 catalytic (human) (UniProt P29597)
TYRO3 (human) = TYRO3 (human) (UniProt Q06418)
VRK1 (human) = VRK1 (human) (UniProt Q99986)
YES1 (human) = YES1 (human) (UniProt P07947)
DAPK2 (human) = DAPK2 (human) (UniProt Q9UIK4)

MYLK2 (human), sequence (Q9H1R3 whole entry, looked up): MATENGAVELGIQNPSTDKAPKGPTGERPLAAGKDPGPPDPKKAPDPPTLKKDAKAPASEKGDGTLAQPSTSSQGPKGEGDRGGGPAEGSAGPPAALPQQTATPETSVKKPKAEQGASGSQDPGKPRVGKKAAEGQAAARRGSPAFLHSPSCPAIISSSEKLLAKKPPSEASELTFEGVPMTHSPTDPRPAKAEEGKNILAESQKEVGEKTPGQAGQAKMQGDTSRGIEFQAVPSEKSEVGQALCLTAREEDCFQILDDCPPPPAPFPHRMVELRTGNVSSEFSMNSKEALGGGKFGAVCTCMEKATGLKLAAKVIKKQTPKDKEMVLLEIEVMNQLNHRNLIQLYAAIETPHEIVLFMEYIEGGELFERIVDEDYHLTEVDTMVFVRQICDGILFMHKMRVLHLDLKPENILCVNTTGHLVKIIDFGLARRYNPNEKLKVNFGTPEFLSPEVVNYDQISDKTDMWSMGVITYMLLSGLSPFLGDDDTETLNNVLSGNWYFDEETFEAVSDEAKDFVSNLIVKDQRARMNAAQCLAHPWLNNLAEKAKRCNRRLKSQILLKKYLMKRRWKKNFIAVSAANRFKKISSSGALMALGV
TYRO3 (human), sequence (Q06418 whole entry, looked up): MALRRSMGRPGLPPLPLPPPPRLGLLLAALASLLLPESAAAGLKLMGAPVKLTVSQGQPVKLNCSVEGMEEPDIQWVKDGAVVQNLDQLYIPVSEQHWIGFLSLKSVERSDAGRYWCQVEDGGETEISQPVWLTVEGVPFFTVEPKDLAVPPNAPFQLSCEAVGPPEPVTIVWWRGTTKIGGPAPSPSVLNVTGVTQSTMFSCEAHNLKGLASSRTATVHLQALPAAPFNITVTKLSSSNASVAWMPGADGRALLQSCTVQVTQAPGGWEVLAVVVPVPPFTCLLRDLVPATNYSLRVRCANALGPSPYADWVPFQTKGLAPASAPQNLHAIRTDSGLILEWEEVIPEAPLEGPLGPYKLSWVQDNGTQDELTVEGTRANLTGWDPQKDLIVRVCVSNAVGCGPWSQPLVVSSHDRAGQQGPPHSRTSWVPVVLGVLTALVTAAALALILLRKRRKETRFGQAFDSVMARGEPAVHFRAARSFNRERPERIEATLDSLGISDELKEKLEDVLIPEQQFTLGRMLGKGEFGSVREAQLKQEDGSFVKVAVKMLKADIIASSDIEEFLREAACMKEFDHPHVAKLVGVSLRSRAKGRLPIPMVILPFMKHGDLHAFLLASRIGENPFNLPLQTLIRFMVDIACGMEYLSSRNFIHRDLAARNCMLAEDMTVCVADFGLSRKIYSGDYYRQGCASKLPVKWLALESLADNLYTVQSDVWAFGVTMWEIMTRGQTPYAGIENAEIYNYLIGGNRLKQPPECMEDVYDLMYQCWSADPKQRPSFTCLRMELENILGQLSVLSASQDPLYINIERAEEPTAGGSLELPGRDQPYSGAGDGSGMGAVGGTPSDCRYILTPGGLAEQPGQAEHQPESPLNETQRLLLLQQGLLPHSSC
VRK1 (human), sequence (Q99986 whole entry, looked up): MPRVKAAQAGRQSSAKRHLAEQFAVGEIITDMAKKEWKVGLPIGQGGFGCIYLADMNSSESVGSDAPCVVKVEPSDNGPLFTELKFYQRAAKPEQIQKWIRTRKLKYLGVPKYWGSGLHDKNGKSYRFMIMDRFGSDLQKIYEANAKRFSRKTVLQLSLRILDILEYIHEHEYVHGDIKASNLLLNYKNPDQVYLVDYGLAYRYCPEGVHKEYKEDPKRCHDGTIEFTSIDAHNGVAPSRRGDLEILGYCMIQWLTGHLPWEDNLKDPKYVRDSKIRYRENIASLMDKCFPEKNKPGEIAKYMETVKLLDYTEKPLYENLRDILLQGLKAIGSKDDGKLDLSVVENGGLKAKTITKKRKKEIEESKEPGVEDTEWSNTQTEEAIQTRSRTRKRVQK
CAMK2B (human), sequence (Q13554 whole entry, looked up): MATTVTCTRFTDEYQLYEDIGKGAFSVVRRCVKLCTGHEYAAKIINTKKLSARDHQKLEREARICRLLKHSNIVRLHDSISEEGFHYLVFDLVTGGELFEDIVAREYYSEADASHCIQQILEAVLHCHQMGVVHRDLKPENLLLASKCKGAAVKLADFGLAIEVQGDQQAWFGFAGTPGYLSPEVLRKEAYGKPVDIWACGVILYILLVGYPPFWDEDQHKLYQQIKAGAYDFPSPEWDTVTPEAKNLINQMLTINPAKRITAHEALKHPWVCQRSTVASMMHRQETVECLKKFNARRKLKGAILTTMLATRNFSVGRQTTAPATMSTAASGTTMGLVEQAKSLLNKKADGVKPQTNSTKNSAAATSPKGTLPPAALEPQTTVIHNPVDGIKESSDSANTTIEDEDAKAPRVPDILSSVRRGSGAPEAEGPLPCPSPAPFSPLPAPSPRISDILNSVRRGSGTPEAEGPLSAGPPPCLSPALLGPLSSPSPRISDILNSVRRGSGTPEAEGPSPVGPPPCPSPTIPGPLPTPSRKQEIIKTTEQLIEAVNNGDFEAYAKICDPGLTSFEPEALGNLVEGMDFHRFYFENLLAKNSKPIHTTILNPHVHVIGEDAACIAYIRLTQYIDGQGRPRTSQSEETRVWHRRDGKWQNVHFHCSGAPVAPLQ
TSSK2 (human), sequence (Q96PF2 whole entry, looked up): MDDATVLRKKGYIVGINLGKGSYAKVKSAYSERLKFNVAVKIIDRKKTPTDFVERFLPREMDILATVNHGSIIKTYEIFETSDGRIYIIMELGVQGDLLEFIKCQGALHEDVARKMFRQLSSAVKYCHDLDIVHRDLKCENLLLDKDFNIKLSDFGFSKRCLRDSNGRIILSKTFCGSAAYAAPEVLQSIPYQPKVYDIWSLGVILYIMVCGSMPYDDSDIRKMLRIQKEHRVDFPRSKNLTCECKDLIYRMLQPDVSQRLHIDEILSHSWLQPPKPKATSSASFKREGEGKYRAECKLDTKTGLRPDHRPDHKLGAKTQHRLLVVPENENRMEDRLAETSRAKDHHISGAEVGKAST
GRK4 (human), sequence (P32298 whole entry, looked up): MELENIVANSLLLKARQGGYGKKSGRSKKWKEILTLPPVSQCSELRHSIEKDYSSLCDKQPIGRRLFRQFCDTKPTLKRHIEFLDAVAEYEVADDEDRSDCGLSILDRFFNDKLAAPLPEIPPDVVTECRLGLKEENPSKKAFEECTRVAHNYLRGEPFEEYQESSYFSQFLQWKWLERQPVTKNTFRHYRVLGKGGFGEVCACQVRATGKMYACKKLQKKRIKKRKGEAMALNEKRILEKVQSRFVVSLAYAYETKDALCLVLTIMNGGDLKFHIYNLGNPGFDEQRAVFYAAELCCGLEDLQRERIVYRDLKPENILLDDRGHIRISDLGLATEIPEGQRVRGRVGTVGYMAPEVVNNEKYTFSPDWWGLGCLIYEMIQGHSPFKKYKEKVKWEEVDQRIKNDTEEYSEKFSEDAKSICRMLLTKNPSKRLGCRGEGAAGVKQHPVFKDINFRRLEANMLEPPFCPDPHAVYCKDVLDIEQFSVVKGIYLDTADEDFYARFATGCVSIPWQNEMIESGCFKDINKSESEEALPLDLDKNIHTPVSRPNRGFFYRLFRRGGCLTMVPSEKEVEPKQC
CAMK1G (human), sequence (Q96NX5 whole entry, looked up): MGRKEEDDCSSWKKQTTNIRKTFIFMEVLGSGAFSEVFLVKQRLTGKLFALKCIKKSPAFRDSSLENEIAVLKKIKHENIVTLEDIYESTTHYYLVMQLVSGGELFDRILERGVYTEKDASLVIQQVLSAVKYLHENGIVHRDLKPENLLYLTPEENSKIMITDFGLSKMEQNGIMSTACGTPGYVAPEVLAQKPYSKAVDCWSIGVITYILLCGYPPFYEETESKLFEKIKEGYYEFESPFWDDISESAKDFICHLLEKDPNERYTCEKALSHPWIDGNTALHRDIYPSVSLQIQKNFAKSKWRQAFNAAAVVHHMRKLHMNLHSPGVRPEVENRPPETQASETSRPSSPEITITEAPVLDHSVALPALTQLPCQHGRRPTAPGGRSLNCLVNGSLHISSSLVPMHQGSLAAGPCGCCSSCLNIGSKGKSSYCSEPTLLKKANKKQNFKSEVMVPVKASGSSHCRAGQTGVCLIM
TAOK3 (human), sequence (Q9H2K8 whole entry, looked up): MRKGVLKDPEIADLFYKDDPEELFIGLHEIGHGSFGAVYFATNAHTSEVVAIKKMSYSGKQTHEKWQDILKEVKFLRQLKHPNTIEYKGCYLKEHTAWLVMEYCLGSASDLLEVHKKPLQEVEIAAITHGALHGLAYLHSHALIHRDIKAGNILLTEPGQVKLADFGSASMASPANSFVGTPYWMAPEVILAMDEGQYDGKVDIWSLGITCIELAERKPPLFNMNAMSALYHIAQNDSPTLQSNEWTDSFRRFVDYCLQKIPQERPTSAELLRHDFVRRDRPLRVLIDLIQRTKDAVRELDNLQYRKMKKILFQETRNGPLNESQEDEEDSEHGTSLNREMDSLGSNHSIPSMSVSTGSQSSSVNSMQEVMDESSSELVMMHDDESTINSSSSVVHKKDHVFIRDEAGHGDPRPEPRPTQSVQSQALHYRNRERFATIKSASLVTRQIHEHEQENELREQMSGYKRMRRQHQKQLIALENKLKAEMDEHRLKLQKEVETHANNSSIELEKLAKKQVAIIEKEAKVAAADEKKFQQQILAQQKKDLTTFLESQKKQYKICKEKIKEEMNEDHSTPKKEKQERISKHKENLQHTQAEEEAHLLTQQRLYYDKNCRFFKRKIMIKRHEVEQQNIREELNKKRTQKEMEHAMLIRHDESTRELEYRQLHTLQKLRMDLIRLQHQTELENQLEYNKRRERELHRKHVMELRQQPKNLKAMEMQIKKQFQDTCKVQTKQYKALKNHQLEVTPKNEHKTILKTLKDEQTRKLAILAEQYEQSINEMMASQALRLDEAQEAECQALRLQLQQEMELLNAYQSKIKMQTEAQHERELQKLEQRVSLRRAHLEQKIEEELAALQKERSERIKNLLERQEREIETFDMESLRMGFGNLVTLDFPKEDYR

In the case of Cn1cc(/C=C2\C(=O)Nc3ccc(S(N)(=O)=O)cc32)c2ccccc21, the residual activity (AKT3 (human)) is reported as 97.4%, the residual activity (CAMK1G (human)) is reported as 89.2% and the residual activity (CAMK2A (human)) is reported as 57.6%. The residual activity (CAMK2B (human)) was 86.5%, the residual activity (CAMK2D (human)) was 66.8% and the residual activity (CDK2 CCNA2 (human)) was 66.2%. The residual activity (CDK3 CCNE1 (human)) was 90.3%, the residual activity (CDK4 CCND1 (human)) was 106% and the residual activity (CDK6 CCND3 (human)) was 81.4%. For the same molecule, the residual activity (CHEK1 (human)) was 19.5%, the residual activity (CLK1 (human)) was 88.3% and the residual activity (DAPK3 (human)) was 94.1%. It also gave a residual activity (EPHB4 (human)) of 57.4%, a residual activity (GRK4 (human)) of 40.4% and a residual activity (GRK7 (human)) of 20.9%. The residual activity (HIPK4 (human)) was 86.2%, the residual activity (IRAK1 (human)) was 14.2% and the residual activity [1] was 83.9%. The residual activity (JAK3 JH1 JH2 (human)) was 43.7%, the residual activity (MAPK1 (human)) was 98.2% and the residual activity (MYLK2 (human)) was 53.6%. The residual activity (PBK (human)) was 99.6%, the residual activity (PIM2 (human)) was 101% and the residual activity (PRKCH (human)) was 102%. The residual activity (PRKCI (human)) was 99.6%, the residual activity (PRKD1 (human)) was 80% and the residual activity (RIPK2 (human)) was 74.3%. The residual activity (ROCK1 (human)) was 63.8%, the residual activity (RPS6KA5 KD2 (human)) was 80.9% and the residual activity (STK11 (human)) was 68.2%. It also gave a residual activity (STK33 (human)) of 46.3%, a residual activity (STK39 (human)) of 79.3% and a residual activity (TAOK3 (human)) of 60.2%. For the same molecule, the residual activity (TGFBR1 (human)) was 97.8%, the residual activity (TSSK1B (human)) was 17% and the residual activity (TSSK2 (human)) was 84%. The residual activity [2] was 35%, the residual activity (TYRO3 (human)) was 90.5% and the residual activity (VRK1 (human)) was 103%. For the same molecule, the residual activity (YES1 (human)) was 24.2%.

N#CCCc1ccc2c(c1)-c1[nH]c3ccc([N+](=O)[O-])cc3c1CC(=O)N2 gave a residual activity (AKT3 (human)) of 95.5%, a residual activity (CAMK1G (human)) of 103% and a residual activity (CAMK2A (human)) of 69.1%. The residual activity (CAMK2B (human)) was 99.3%, the residual activity (CAMK2D (human)) was 57.8% and the residual activity (CDK2 CCNA2 (human)) was 2.93%. For the same molecule, the residual activity (CDK3 CCNE1 (human)) was 39.7%, the residual activity (CDK4 CCND1 (human)) was 11.8% and the residual activity (CDK6 CCND3 (human)) was 26%. It also gave a residual activity (CHEK1 (human)) of 45.1%, a residual activity (CLK1 (human)) of 99.6% and a residual activity (DAPK2 (human)) of 96.5%. For the same molecule, the residual activity (DAPK3 (human)) was 99.3%, the residual activity (EPHB4 (human)) was 82.2% and the residual activity (GRK4 (human)) was 101%. It also gave a residual activity (GRK7 (human)) of 97.7%, a residual activity (HIPK4 (human)) of 113% and a residual activity (IRAK1 (human)) of 74.9%. The residual activity [1] was 91.9%, the residual activity (JAK3 JH1 JH2 (human)) was 101% and the residual activity (MAPK1 (human)) was 119%. For the same molecule, the residual activity (MYLK2 (human)) was 93.9%, the residual activity (PBK (human)) was 95.4% and the residual activity (PIM2 (human)) was 104%. For the same molecule, the residual activity (PRKCH (human)) was 99.4%, the residual activity (PRKCI (human)) was 65.3% and the residual activity (PRKD1 (human)) was 87.5%. The residual activity (RIPK2 (human)) was 21.5%, the residual activity (ROCK1 (human)) was 38.9% and the residual activity (RPS6KA5 KD2 (human)) was 94.2%. For the same molecule, the residual activity (STK33 (human)) was 78.8%, the residual activity (STK39 (human)) was 96.4% and the residual activity (TAOK3 (human)) was 66%. For the same molecule, the residual activity (TGFBR1 (human)) was 103%, the residual activity (TSSK1B (human)) was 59.2% and the residual activity (TSSK2 (human)) was 78.7%. For the same molecule, the residual activity [2] was 48.1%, the residual activity (TYRO3 (human)) was 94.8% and the residual activity (VRK1 (human)) was 97.5%. It also gave a residual activity (YES1 (human)) of 35.8%.

With N#C/C(=C1/Nc2ccccc2S1)c1ccnc(NCCc2cccnc2)n1 the residual activity (AKT3 (human)) was 105%, the residual activity (CAMK1G (human)) was 92.3% and the residual activity (CAMK2A (human)) was 105%. For the same molecule, the residual activity (CAMK2B (human)) was 97.3%, the residual activity (CAMK2D (human)) was 89.3% and the residual activity (CDK2 CCNA2 (human)) was 94.4%. It also gave a residual activity (CDK3 CCNE1 (human)) of 92.3%, a residual activity (CDK4 CCND1 (human)) of 90.4% and a residual activity (CDK6 CCND3 (human)) of 94.6%. It also gave a residual activity (CHEK1 (human)) of 94.6%, a residual activity (CLK1 (human)) of 75.4% and a residual activity (DAPK2 (human)) of 119%. For the same molecule, the residual activity (DAPK3 (human)) was 109%, the residual activity (EPHB4 (human)) was 99.7% and the residual activity (GRK4 (human)) was 103%. For the same molecule, the residual activity (GRK7 (human)) was 113%, the residual activity (HIPK4 (human)) was 97.6% and the residual activity (IRAK1 (human)) was 91.8%. The residual activity [1] was 113%, the residual activity (JAK3 JH1 JH2 (human)) was 106% and the residual activity (MAPK1 (human)) was 93.5%. It also gave a residual activity (MYLK2 (human)) of 92.8%, a residual activity (PBK (human)) of 99.7% and a residual activity (PIM2 (human)) of 91.2%. It also gave a residual activity (PRKCH (human)) of 98.7%, a residual activity (PRKCI (human)) of 94.4% and a residual activity (PRKD1 (human)) of 82.4%. It also gave a residual activity (ROCK1 (human)) of 93.2%, a residual activity (RPS6KA5 KD2 (human)) of 98.9% and a residual activity (STK11 (human)) of 79.4%. For the same molecule, the residual activity (STK33 (human)) was 55.4%, the residual activity (STK39 (human)) was 96.9% and the residual activity (TAOK3 (human)) was 87.5%. For the same molecule, the residual activity (TGFBR1 (human)) was 97.8%, the residual activity (TSSK1B (human)) was 99% and the residual activity (TSSK2 (human)) was 102%. The residual activity [2] was 83.2%, the residual activity (TYRO3 (human)) was 98.3% and the residual activity (VRK1 (human)) was 94.1%. For the same molecule, the residual activity (YES1 (human)) was 89.1%.
